Assay results: US9796704B2, “Substituted quinazolines as receptor-type kinase inhibitors” (Symphony Evolution, Inc., priority 2002, dated 2017)

Key:
EphA2 = EphA2 (Homo sapiens (Human), UniProt P29317); experiment: EphA2 kinase inhibition, luciferase-coupled chemiluminescent assay (LCCA); details: read-out: EphA2 IC50
Procedure: (§1) Kinase activity and compound inhibition are investigated using one or more of the three assay formats described below. The ATP concentrations are selected near its Michaelis-Menten constant (KM) for each individual kinase. Dose-response experiments are performed at ten different inhibitor concentrations in a 384-well plate format. […] Typically H is close to unity.
(§2) In the LCCA assays, kinase activity is measured by the ATP consumption that is accurately measured by luciferase-coupled chemiluminescence. Greiner 384-well white clear bottom medium binding plates are used for LCCA. Briefly the kinase reaction is initiated by mixing compounds, ATP and kinases in a 20 μL volume. At the end of the kinase reaction, a 20 μL luciferase-luciferin mix is added and the chemiluminescent signal is read on a Wallac Victor^2 reader.

KDR = KDR (Homo sapiens (Human), UniProt P35968); experiment: KDR kinase inhibition, luciferase-coupled chemiluminescent assay (LCCA); details: read-out: KDR IC50
Procedure: as §1, §2

EphB4 = EphB4 (Homo sapiens (Human), UniProt P54760); experiment: EphB4 kinase inhibition, 33P phosphoryl transfer assay (radiometric); format: biochemical
EphB4, sequence (P54760 605-890): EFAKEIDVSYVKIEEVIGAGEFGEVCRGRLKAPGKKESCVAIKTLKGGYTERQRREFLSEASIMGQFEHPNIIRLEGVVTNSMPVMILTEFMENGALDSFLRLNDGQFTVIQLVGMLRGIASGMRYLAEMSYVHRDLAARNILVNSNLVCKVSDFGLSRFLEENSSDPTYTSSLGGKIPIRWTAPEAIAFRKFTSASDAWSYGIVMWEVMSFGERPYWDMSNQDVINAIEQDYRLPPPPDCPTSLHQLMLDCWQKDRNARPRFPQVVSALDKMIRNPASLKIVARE

ErbB2 = ErbB2 (Homo sapiens (Human), UniProt P04626); experiment: ErbB2 kinase inhibition, AlphaScreen; format: biochemical
Procedure: Kinase activity and compound inhibition are investigated using one or more of the three assay formats described below. The ATP concentrations are selected near its Michaelis-Menten constant (KM) for each individual kinase. Dose-response experiments are performed at ten different inhibitor concentrations in a 384-well plate format. […] These parameters are obtained by nonlinear regression algorithm built into ActivityBase software (available from ID Business Solutions Ltd., of Guildford, Surrey, UK). ^33P Phosphoryl Transfer Assay (Radiometric)

EGFR = EGFR (Homo sapiens (Human), UniProt P00533); experiment: EGFR kinase inhibition, luciferase-coupled chemiluminescent assay (LCCA); details: read-out: EGFR IC50

KDR, sequence (P35968 807-1356): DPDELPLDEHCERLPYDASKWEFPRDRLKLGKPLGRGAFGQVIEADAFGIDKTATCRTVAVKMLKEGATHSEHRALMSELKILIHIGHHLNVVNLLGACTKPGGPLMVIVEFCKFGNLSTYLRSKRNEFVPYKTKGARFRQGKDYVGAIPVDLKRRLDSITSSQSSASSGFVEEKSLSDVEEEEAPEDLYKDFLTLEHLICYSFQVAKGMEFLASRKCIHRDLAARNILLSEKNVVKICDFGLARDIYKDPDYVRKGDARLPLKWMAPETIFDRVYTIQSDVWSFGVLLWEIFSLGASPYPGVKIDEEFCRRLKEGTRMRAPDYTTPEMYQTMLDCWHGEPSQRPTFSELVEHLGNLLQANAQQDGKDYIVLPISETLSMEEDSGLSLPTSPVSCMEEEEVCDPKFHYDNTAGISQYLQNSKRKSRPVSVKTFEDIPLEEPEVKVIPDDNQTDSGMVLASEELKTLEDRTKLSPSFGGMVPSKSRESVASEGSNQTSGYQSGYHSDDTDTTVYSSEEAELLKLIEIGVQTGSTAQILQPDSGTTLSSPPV
EphA2, sequence (P29317 598-890): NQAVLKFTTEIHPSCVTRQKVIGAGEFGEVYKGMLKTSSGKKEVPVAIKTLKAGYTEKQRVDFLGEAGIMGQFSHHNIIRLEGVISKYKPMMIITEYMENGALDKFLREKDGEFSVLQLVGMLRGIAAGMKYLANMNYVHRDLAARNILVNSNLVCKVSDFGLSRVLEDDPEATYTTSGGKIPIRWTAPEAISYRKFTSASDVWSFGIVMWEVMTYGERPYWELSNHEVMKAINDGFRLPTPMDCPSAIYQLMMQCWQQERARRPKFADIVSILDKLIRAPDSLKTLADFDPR

| Molecule | IC50 (EphA2) | IC50 (KDR) | IC50 (EphB4) | IC50 (ErbB2) | IC50 (EGFR) |
| --- | --- | --- | --- | --- | --- |
| COc1cc2c(Nc3ccc(Cl)c(Cl)c3)ncnc2cc1OCc1nc(-c2ccc(C(C)(C)C)cc2)no1 [Example 226, N-(3,4-dichlorophenyl)-7-[({3-[4-(1,1-dimethylethyl)phenyl]-1,2,4-oxadiazol-5-yl}methyl)oxy]-6-(methyloxy)quinazolin-4-amine] | 50 to 1000 nM | < 50 nM | < 50 nM | < 50 nM | < 50 nM |
| COc1cc2c(Nc3ccc(Cl)c(Cl)c3)ncnc2cc1OCc1ccc2nc(C(F)(F)F)cc(Cl)c2c1 [Example 236, 7-({[4-chloro-2-(trifluoromethyl)quinolin-6-yl]methyl}oxy)-N-(3,4-dichlorophenyl)-6-(methyloxy)quinazolin-4-amine] | < 50 nM | < 50 nM | < 50 nM | < 50 nM | < 50 nM |
| COc1cc2c(Nc3ccc(Cl)c(Cl)c3)ncnc2cc1OCCC1CCCN1C (centres unmarked) [Example 237, N-(3,4-dichlorophenyl)-6-(methyloxy)-7-{[2-(1-methylpyrrolidin-2-yl)ethyl]oxy}quinazolin-4-amine] | < 50 nM | < 50 nM | < 50 nM | < 50 nM | < 50 nM |
| CCN1CCC(c2nc(COc3cc4ncnc(Nc5ccc(Cl)c(Cl)c5)c4cc3OC)no2)CC1 [Example 238, N-(3,4-dichlorophenyl)-7-({[5-(1-ethylpiperidin-4-yl)-1,2,4-oxadiazol-3-yl]methyl}oxy)-6-(methyloxy)quinazolin-4-amine] | < 50 nM | < 50 nM | < 50 nM | < 50 nM | < 50 nM |
| COc1cc2c(Nc3ccc(Cl)c(Cl)c3)ncnc2cc1OCc1nc([C@@H]2CCCN2)no1 [Example 243, N-(3,4-dichlorophenyl)-6-(methyloxy)-7-[({3-[(2S)-pyrrolidin-2-yl]-1,2,4-oxadiazol-5-yl}methyl)oxy]quinazolin-4-amine] | < 50 nM | < 50 nM | < 50 nM | < 50 nM | < 50 nM |
| COc1cc2c(Nc3ccc(Cl)c(Cl)c3)ncnc2cc1OCc1csc([C@@H]2CCCN2)n1 [Example 244, N-(3,4-dichlorophenyl)-6-(methyloxy)-7-[({2-[(2S)-pyrrolidin-2-yl]-1,3-thiazol-4-yl}methyl)oxy]quinazolin-4-amine] | < 50 nM | < 50 nM | < 50 nM | < 50 nM | < 50 nM |
| COc1cc2c(Nc3ccc(Cl)c(Cl)c3)ncnc2cc1OCc1csc(COC(=O)c2ccccc2)n1 [Example 245, [4-({[4-[(3,4-dichlorophenyl)amino]-6-(methyloxy)quinazolin-7-yl]oxy}methyl)-1,3-thiazol-2-yl]methyl benzoate] | < 50 nM | < 50 nM | < 50 nM | < 50 nM | < 50 nM |
| N-(3,4-dichlorophenyl)-6-(methyloxy)-7-({[3-(4-methylpiperazin-1-yl)-1,2,4-oxadiazol-5-yl]methyl}oxy)quinazolin-4-amine [Example 33] | 50 to 1000 nM | < 50 nM | < 50 nM | 50 to 1000 nM | < 50 nM |
| N-(3,4-dichlorophenyl)-6-(methyloxy)-7-{[(5-methyl-4,5,6,7-tetrahydro[1,3]thiazolo[5,4-c]pyridin-2-yl)methyl]oxy}quinazolin-4-amine hydrochloride [Example 34] | 50 to 1000 nM | 50 to 1000 nM | 50 to 1000 nM | < 50 nM | < 50 nM |
| N-(3,4-dichlorophenyl)-7-{[(5-ethyl-4,5,6,7-tetrahydro[1,3]thiazolo[5,4-c]pyridin-2-yl)methyl]oxy}-6-(methyloxy)quinazolin-4-amine hydrochloride [Example 35] | 50 to 1000 nM | < 50 nM | 50 to 1000 nM | 50 to 1000 nM | < 50 nM |
